Laboratory results published in patent publication US20220362249A1, “METHODS FOR TREATING […]” (PTC Therapeutics MP, Inc., priority 2019, published 2022).
Where two headings read alike, the source gives them in different places.

Assays:
Assay type in all cases: in vivo, human
[1] = Food effect on administration of sepiapterin: plasma sepiapterin and BH4 concentrations, fasted vs fed; conditions: sepiapterin 10 mg/kg oral; for concentration at 0 h / concentration at 0.5 h / concentration at 1 h / concentration at 2 h / concentration at 4 h / concentration at 8 h / concentration at 12 h / concentration at 24 h: human, oral, 10 mg/kg; for concentration at 0 h: 0 h (predose)
Procedure: Method: Subjects received 2 oral doses of sepiapterin (10 mg/kg) separated by 1 week in a fasted and fed state. Subjects were fed a standard high-fat (approximately 50 percent of total caloric content of the meal) and high-calorie (approximately 800 to 1000 calories) meal starting 30 minutes prior to receiving their second oral dose of sepiapterin on Day 8.
Sampling for PK analysis occurred predose on Days 1 and 8 (within 30 minutes before dosing) and 0.5 hr, 1 hr, 2 hr, 4 hr, 8 hr, 12 hr, and 24 hr after the doses on Days 1 and 8. The blood concentrations of sepiapterin and BH4 were analyzed by MNG Labs.

[2] = Comparison of adverse events in fed and fasted subjects; conditions: single dose 10 mg/kg, twelve subjects
Procedure: Method: Twelve subjects were given a single dose (10 mg/kg) of sepiapterin under fasting conditions and then 7 days later under fed conditions. Standard definitions of adverse events (AE) were used. All-cause AE were those that occurred at any time; treatment-emergent adverse events (TEAE) were those that occurred at or after the time of administration of study treatment. TEAEs related to study drug were based on the opinion of the investigator. Serious AE were defined as life threatening or caused death, hospitalization or prolongation of existing hospitalization, or were a persistent or significant disability/incapacity or a substantial disruption of the ability to conduct normal life functions, or a congenital anomaly/birth defect.

[3] = Pharmacokinetic analysis of multiple doses of sepiapterin (once daily for 7 days, fed subjects)
Description: Methods: Three cohorts of eight fed subjects each were randomized to receive once-daily sepiapterin or placebo for 7 days in a 6:2 ratio. A sentinel dose strategy was also used for administration of the highest sepiapterin dose.

[4] = plasma, fasted, read-out: Concentration in Plasma, Maximum
[5] = plasma, fasted, read-out: Concentration in Plasma, Mean
[6] = plasma, fasted, read-out: Concentration in Plasma, Median
[7] = plasma, fasted, read-out: Concentration in Plasma, Minimum
[8] = plasma, fed (high-fat meal), read-out: Concentration in Plasma, Maximum
[9] = plasma, fed (high-fat meal), read-out: Concentration in Plasma, Mean
[10] = plasma, fed (high-fat meal), read-out: Concentration in Plasma, Median
[11] = plasma, fed (high-fat meal), read-out: Concentration in Plasma, Minimum

In the case of `C[C@H](O)C(=O)C1=Nc2c(nc(N)[nH]c2=O)NC1` [sepiapterin, Sepiapterin], the concentration at 0 h [1, 4] was 0 nM, the concentration at 0 h [1, 5] was 0 nM and the concentration at 0 h [1, 6] was 0 nM. The concentration at 0 h [1, 7] was 0 nM, the concentration at 0.5 h [1, 4] was 7.23 nM and the concentration at 0.5 h [1, 5] was 2.85 nM. It also gave a concentration at 0.5 h [1, 6] of 2.32 nM, a concentration at 0.5 h [1, 7] of 0 nM and a concentration at 1 h [1, 4] of 10.2 nM. It also gave a concentration at 1 h [1, 5] of 5.43 nM, a concentration at 1 h [1, 6] of 4.82 nM and a concentration at 1 h [1, 7] of 3.15 nM. It also gave a concentration at 2 h [1, 4] of 6.65 nM, a concentration at 2 h [1, 5] of 4.63 nM and a concentration at 2 h [1, 6] of 4.71 nM. The concentration at 2 h [1, 7] was 2.52 nM, the concentration at 4 h [1, 4] was 3.93 nM and the concentration at 4 h [1, 5] was 1.88 nM. For the same molecule, the concentration at 4 h [1, 6] was 2.37 nM, the concentration at 4 h [1, 7] was 0 nM and the concentration at 8 h [1, 4] was 0 nM. The concentration at 8 h [1, 5] was 0 nM, the concentration at 8 h [1, 6] was 0 nM and the concentration at 8 h [1, 7] was 0 nM. The concentration at 12 h [1, 4] was 0 nM, the concentration at 12 h [1, 5] was 0 nM and the concentration at 12 h [1, 6] was 0 nM. It also gave a concentration at 12 h [1, 7] of 0 nM, a concentration at 24 h [1, 4] of 0 nM and a concentration at 24 h [1, 5] of 0 nM. The concentration at 24 h [1, 6] was 0 nM, the concentration at 24 h [1, 7] was 0 nM and the concentration at 0 h [1, 8] was 0 nM. It also gave a concentration at 0 h [1, 9] of 0 nM, a concentration at 0 h [1, 10] of 0 nM and a concentration at 0 h [1, 11] of 0 nM. It also gave a concentration at 0.5 h [1, 8] of 3.22 nM, a concentration at 0.5 h [1, 9] of 0.63 nM and a concentration at 0.5 h [1, 10] of 0 nM. It also gave a concentration at 0.5 h [1, 11] of 0 nM, a concentration at 1 h [1, 8] of 4.57 nM and a concentration at 1 h [1, 9] of 2.38 nM. It also gave a concentration at 1 h [1, 10] of 2.42 nM, a concentration at 1 h [1, 11] of 0 nM and a concentration at 2 h [1, 8] of 5.92 nM. The concentration at 2 h [1, 9] was 2.96 nM, the concentration at 2 h [1, 10] was 2.91 nM and the concentration at 2 h [1, 11] was 0 nM. The concentration at 4 h [1, 8] was 5.56 nM, the concentration at 4 h [1, 9] was 2.96 nM and the concentration at 4 h [1, 10] was 2.5 nM. The concentration at 4 h [1, 11] was 0 nM, the concentration at 8 h [1, 8] was 2.19 nM and the concentration at 8 h [1, 9] was 0.18 nM. The concentration at 8 h [1, 10] was 0 nM, the concentration at 8 h [1, 11] was 0 nM and the concentration at 12 h [1, 8] was 0 nM. For the same molecule, the concentration at 12 h [1, 9] was 0 nM, the concentration at 12 h [1, 10] was 0 nM and the concentration at 12 h [1, 11] was 0 nM. It also gave a concentration at 24 h [1, 8] of 0 nM, a concentration at 24 h [1, 9] of 0 nM and a concentration at 24 h [1, 10] of 0 nM. The concentration at 24 h [1, 11] was 0 nM, the “Geometric mean ratio (fasted/fed, 90% CI) for AUClast” value ([1]; plasma) was 1.29 (0.84 to 2.00) and the “Geometric mean ratio (fasted/fed, 90% CI) for Cmax” value ([1]; plasma) was 1.57 (1.21 to 2.0). For the same molecule, the “Cmax in the plasma, fed compared to fasted subjects (in words)” value [1] was “much lower”, the TEAE ([2]; Fasted) was 4 and the “TEAE related to study drug” value ([2]; Fasted) was 1. For the same molecule, the “≥1 AE” value ([2]; Fasted) was 5, the TEAE ([2]; Fed) was 1 and the “TEAE related to study drug” value ([2]; Fed) was 0. For the same molecule, the “≥1 AE” value ([2]; Fed) was 1, the Cmax ([3]; Day 1, sepiapterin 20 mg/kg once daily, fed) was 1.2 ng/mL and the AUC0-24 ([3]; Day 7, sepiapterin 60 mg/kg once daily, fed) was 23 ng·h/mL. For the same molecule, the “Drug accumulation after 1 and 7 days of treatment (in words)” value ([3]; once-daily sepiapterin for 7 days) was “no drug accumulation”.
